In patent US20100105694A1, “SUBSTITUTED PYRAZINONE DERIVATIVES FOR USE AS A MEDICINE” (priority 2006, published 2010):
Where two headings read alike, the source gives them in different places.

How the values were obtained:
[1] = target: T1, human adrenergic-α2A receptor (Homo sapiens, UniProt P08913); assay: Radioligand binding experiment for hα2A receptor ([3H]raulwolscine, CHO cell membranes)
T1 construct: expressed in transfected cells; host or cells: CHO cells, stably transfected; membranes
T1 sequence (P08913 1-465): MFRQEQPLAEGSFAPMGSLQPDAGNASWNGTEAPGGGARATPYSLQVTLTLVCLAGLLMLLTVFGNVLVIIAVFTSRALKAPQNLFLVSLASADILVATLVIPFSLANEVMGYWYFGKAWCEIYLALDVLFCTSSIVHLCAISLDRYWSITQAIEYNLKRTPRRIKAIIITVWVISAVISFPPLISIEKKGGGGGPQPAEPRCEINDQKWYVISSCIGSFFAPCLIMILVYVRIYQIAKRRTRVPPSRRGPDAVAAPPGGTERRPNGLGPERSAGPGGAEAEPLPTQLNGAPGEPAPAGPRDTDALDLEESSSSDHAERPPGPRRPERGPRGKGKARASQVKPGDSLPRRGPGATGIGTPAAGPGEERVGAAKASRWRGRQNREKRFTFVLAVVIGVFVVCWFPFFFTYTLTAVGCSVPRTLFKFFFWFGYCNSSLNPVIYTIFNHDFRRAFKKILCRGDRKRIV
Procedure: (§1) The interaction of a compound of Formula (I) with α2C-adrenoceptor receptors was assessed in in vitro radioligand binding experiments. In general, a low concentration of a radioligand with a high binding affinity for a particular receptor or transporter is incubated with a sample of a tissue preparation enriched in a particular receptor or transporter or with a preparation of cells expressing cloned human receptors in a buffered medium. During the incubation, the radioligand binds to the receptor or transporter. When equilibrium of binding is reached, the receptor bound radioactivity is separated from the non-bound radioactivity, and the receptor- or transporter-bound activity is counted. The interaction of the test compounds with the receptor is assessed in competition binding experiments. Various concentrations of the test compound are added to the incubation mixture containing the receptor- or transporter preparation and the radioligand. The test compound in proportion to its binding affinity and its concentration inhibits binding of the radioligand. The radioligand used for hα2A and hα2C receptor binding was [^3H]-raulwolscine.
(§2) CHO cells, stabile transfected with human adrenergic-α2A and α2C receptor cDNA, were cultured in Dulbecco's Modified Eagle's Medium (DMEM)/Nutrient mixture Ham's F12 (ratio 1:1) (Gibco, Gent-Belgium) supplemented with 10% heat inactivated fetal calf serum (Life Technologies, Merelbeke-Belgium) and antibiotics (100 IU/ml penicillin G, 100 μg/ml streptomycin sulphate, 110 μg/ml pyruvic acid and 100 μg/ml L-glutamine). One day before collection, cells were induced with 5 mM sodiumbutyrate. Upon 80-90% of confluence, cells were scraped in phosphate buffered saline without Ca^2+ and Mg^2+ and collected by centrifugation at 1500×g for 10 minutes. The cells were homogenised in Tris-HCl 50 mM using an Ultraturrax homogenizer and centrifuged for 10 minutes at 23,500×g. The pellet was washed once by resuspension and rehomogenization and the final pellet was resuspended in Tris-HCl, divided in 1 ml aliquots and stored at −70° C.
(§3) Membranes were thawed and re-homogenized in incubation buffer (glycylglycine 25 mM, pH 8.0). […] Filters were rinsed extensively with ice-cold rinsing buffer (Tris-HCl 50 mM pH 7.4). Filter-bound radioactivity was determined by scintillation counting in a Topcount (Packard, Meriden, Conn.) and results were expressed as counts per minute (cpm). Non-specific binding was determined in the presence of 1 μM oxymetazoline for the hα2A receptor and 1 μM spiroxatrine for hα2C receptors.
(§4) Data from assays in the presence of compound were calculated as a percentage of total binding measured in the absence of test compound. Inhibition curves, plotting percent of total binding versus the log value of the concentration of the test compound, were automatically generated, and sigmoidal inhibition curves were fitted using non-linear regression. The pIC50 values of test compounds were derived from individual curves.

5HT-Transporter = target: T2, 5HT-Transporter (Homo sapiens, UniProt P31645); assay: Binding experiment for the 5HT-transporter ([3H]paroxetine, human platelet membranes)
T2 construct: Human platelet membranes (Oceanix Biosciences Corporation, Hanover, Md., USA) were thawed; tissue Oceanix Biosciences Corporation; host or cells: human platelet membranes
T2 sequence (P31645 whole entry): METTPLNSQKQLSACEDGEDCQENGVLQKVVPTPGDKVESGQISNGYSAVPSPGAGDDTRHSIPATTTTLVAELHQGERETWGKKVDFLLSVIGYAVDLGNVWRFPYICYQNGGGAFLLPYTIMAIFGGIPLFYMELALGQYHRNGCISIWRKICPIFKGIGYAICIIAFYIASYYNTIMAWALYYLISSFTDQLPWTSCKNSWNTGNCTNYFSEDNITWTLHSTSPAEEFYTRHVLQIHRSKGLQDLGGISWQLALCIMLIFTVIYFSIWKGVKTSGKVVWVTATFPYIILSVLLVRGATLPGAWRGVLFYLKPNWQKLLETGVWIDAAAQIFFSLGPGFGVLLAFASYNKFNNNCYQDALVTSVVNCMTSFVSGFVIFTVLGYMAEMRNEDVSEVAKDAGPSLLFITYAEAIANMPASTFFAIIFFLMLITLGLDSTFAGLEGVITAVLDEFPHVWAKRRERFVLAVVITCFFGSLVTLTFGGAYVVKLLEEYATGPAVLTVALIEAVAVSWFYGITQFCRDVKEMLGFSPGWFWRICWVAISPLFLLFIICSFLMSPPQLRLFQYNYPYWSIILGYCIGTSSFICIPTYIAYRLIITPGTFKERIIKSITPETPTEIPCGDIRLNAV
Procedure: as §1
Human platelet membranes (Oceanix Biosciences Corporation, Hanover, Md., USA) were thawed, diluted in buffer (Tris-HCl 50 mM, 120 mM NaCl and 5 mM KCl) and quickly (max 3 s) homogenised with an Ultraturrax homogenizer. […] Incubation was stopped by rapid filtration of the incubation mixture over GF/B filters, pre-wetted with 0.1% polyethyleneamine, using a Filtermate196 harvester (Packard, Meriden, Conn.). Filters were rinsed extensively with ice-cold buffer and radioactivity on the filters was counted in a Topcount liquid scintillation counter (Packard, Meriden, Conn.). Data were expressed as cpm. Imipramine (at 1 μM final concentration) was used to determine the non-specific binding.
as §4

[2] = target: T3, human adrenergic-α2C receptor (Homo sapiens, UniProt P18825); assay: Radioligand binding experiment for α2C-adrenoceptor ([3H]raulwolscine, CHO cell membranes); settings: [3H]raulwolscine 1 nM, membranes of CHO cells transfected with human α2C receptor; read-out: h-α2C pIC50 (converted)
T3 construct: expressed in transfected cells; host or cells: CHO cells, stably transfected; membranes
T3 sequence (P18825 1-462): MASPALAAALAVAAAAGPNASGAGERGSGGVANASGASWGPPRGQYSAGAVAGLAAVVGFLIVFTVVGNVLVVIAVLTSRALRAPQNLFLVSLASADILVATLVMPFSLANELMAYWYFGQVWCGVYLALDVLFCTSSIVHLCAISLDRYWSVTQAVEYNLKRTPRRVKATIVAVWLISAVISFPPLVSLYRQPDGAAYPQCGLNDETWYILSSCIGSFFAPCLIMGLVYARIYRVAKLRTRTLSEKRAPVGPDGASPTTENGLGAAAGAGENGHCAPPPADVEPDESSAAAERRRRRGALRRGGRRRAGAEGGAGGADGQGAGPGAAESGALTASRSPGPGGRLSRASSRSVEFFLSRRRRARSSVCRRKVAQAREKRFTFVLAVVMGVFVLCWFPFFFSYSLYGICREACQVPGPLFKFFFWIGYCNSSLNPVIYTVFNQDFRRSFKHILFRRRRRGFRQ
Procedure: as §1, §2, §3, §4

[3] = [3H]raulwolscine 1 nM, membranes of CHO cells transfected with human α2A receptor, read-out: h-α2A pIC50 (converted)
[4] = [3H]paroxetine 0.5 nM, read-out: h-5HTT pIC50 (converted)

SMILES | IC50 [1, 3] [nM] | IC50 (5HT-Transporter; [4]) [nM] | IC50 [2] [nM] | IC50 [1] [nM] | IC50 (5HT-Transporter; h-5HTT pIC50, [3H]paroxetine 0.5 nM) [nM]
NCc1ccc(Cn2ccnc(NC3CCN(Cc4ccc(-c5ccccc5)cc4)CC3)c2=O)cc1 [Compound 1-1] | 251 | 501 | 251 | – | –
O=c1c(NC2CCN(Cc3ccc(-c4ccccc4)cc3)CC2)nccn1CCN1CCCCC1 [Compound 1-3] | 501 | 2510 | 100 | – | –
O=C1c2ccccc2C(=O)N1CCCn1ccnc(NC2CCN(Cc3ccc(-c4ccccc4)cc3)CC2)c1=O [Compound 1-4] | 631 | 158 | 126 | – | –
COC(=O)Cn1ccnc(NC2CCN(Cc3ccc(-c4ccccc4)cc3)CC2)c1=O [Compound 1-5] | 1260 | 5010 | 316 | – | –
O=c1c(NC2CCN(Cc3ccc(-c4ccccc4)cc3)CC2)nccn1Cc1ccccc1Br [Compound 1-6] | 794 | 398 | 501 | – | –
O=c1c(NC2CCN(Cc3ccc(-c4ccccc4)cc3)CC2)nccn1Cc1cccc(Br)c1 [Compound 1-7] | 1000 | 1000 | 398 | – | –
O=c1c(NC2CCN(Cc3ccc(-c4ccccc4)cc3)CC2)nccn1Cc1ccc(Br)cc1 [Compound 1-8] | 1000 | 631 | 794 | – | –
O=c1c(NC2CCN(Cc3ccc(-c4ccccc4)cc3)CC2)nccn1CC1CCCCO1 (stereo not drawn) [Compound 1-9] | 2000 | 316 | 631 | – | –
O=c1c(NC2CCN(Cc3ccc(-c4ccccc4)cc3)CC2)nccn1Cc1ccncc1 [Compound 1-10] | 3160 | > 10000 | 794 | – | –
O=c1c(NC2CCN(Cc3ccc(-c4ccccc4)cc3)CC2)nccn1Cc1ccc2ccccc2n1 [Compound 1-11] | 631 | 501 | 794 | – | –
CC(C)(C)OC(=O)NCCCn1ccnc(N2CCN(Cc3ccc(-c4ccccc4)cc3)CC2)c1=O [Compound 2-1] | 1260 | 1580 | 631 | – | –
O=C1c2ccccc2C(=O)N1CCCn1ccnc(N2CCN(Cc3ccc(-c4ccccc4)cc3)CC2)c1=O [Compound 2-2] | 1000 | 200 | 316 | – | –
NCc1ccc(Cn2ccnc(N3CCN(Cc4cccc(-c5ccccc5)c4)CC3)c2=O)cc1 [Compound 3-1] | 79.4 | 5010 | 631 | – | –
CC(C)(C)OC(=O)NCc1ccc(Cn2ccnc(N3CCN(Cc4cccc(-c5ccccc5)c4)CC3)c2=O)cc1 [Compound 3-2] | 200 | 6310 | 251 | – | –
O=c1[nH]ccnc1N1CCN(Cc2cccc(-c3ccccc3)c2)CC1 [Compound 3-3] | 316 | > 10000 | 316 | – | –
C=CCn1ccnc(N2CCN(Cc3cccc(-c4ccccc4)c3)CC2)c1=O [Compound 3-4] | 200 | – | 794 | – | –
O=c1c(N2CCN(Cc3cccc(-c4ccccc4)c3)CC2)nccn1CC=Cc1ccccc1 [Compound 3-6] | 794 | 5010 | 794 | – | –
O=c1c(N2CCN(Cc3cccc(-c4ccccc4)c3)CC2)nccn1Cc1ccc2ccccc2c1 [Compound 3-7] | 200 | 5010 | – | – | –

SMILES | IC50 [1, 3] [nM] | IC50 (5HT-Transporter; [4]) [nM] | IC50 [2] [nM] | IC50 [1] [nM] | IC50 (5HT-Transporter; h-5HTT pIC50, [3H]paroxetine 0.5 nM) [nM]
O=c1c(N2CCN(Cc3cccc(-c4ccccc4)c3)CC2)nccn1Cc1ccco1 [Compound 3-8] | 79.4 | – | 316 | – | –
O=C1c2ccccc2C(=O)N1CCCn1ccnc(N2CCN(Cc3cccc(-c4ccccc4)c3)CC2)c1=O [Compound 3-9] | 1580 | 794 | 794 | – | –
COc1ccc(-c2nnc(Cn3ccnc(N4CCN(Cc5cccc(-c6ccccc6)c5)CC4)c3=O)o2)cc1 [Compound 3-10] | 501 | 6310 | – | – | –
O=c1c(N2CCC(c3ccccc3)CC2)nccn1Cc1ccc2ccccc2c1 [Compound 4-1] | 501 | 3980 | 501 | – | –
NCc1ccc(Cn2ccnc(N3CCC(c4ccccc4)CC3)c2=O)cc1 [Compound 4-2] | 501 | > 10000 | 794 | – | –
CC(C)(C)OC(=O)NCc1ccc(Cn2ccnc(N3CCC(c4ccccc4)CC3)c2=O)cc1 [Compound 4-3] | 200 | > 10000 | 631 | – | –
NCc1ccc(Cn2ccnc(NC3CCN(Cc4ccccc4)CC3)c2=O)cc1 [Compound 5-1] | – | 7940 | – | – | –
NCc1ccc(Cn2ccnc(NC3CCN(Cc4ccccc4)CC3)c2=O)cc1 [Compound 5-2] | 1000 | > 10000 | 631 | – | –
NCc1ccc(CN(c2nccn(Cc3ccc(CN)cc3)c2=O)C2CCN(Cc3ccccc3)CC2)cc1 [Compound 5-3] | 1000 | > 10000 | – | – | –
O=c1c(NC2CCN(Cc3ccccc3)CC2)nccn1CCN1CCCCC1 [Compound 5-4] | 3160 | > 10000 | – | – | –
O=C1c2ccccc2C(=O)N1CCCn1ccnc(NC2CCN(Cc3ccccc3)CC2)c1=O [Compound 5-5] | 5010 | 3980 | 398 | – | –
NCCCn1ccnc(NC2CCN(CCc3ccccc3)CC2)c1=O [Compound 6-1] | – | – | – | 3980 | > 10000
NCc1ccc(Cn2ccnc(NC3CCN(CCc4ccccc4)CC3)c2=O)cc1 [Compound 6-2] | – | 3980 | – | – | –
NCc1ccc(Cn2ccnc(NC3CCN(CCc4ccccc4)CC3)c2=O)cc1 [Compound 6-3] | 1260 | > 10000 | 398 | – | –
NCCCn1ccnc(NC2CCN(CC(c3ccccc3)c3ccccc3)CC2)c1=O [Compound 9-1] | 1000 | – | 501 | – | –
CC(C)(C)OC(=O)NCc1ccc(Cn2ccnc(N3CCN(CCc4ccccc4)CC3)c2=O)cc1 [Compound 10-3] | 794 | – | 316 | – | –
O=C(Cn1ccnc(N2CCN(CCc3ccccc3)CC2)c1=O)c1ccccc1 [Compound 10-7] | 2000 | > 10000 | – | – | –
O=c1c(N2CCN(Cc3ccccc3)CC2)nccn1Cc1ccc2ccccc2c1 [Compound 10-9] | 126 | – | 794 | – | –
